In patent US10335411B2, “Administration of ubiquitin-activating enzyme inhibitor and radiation” (Millennium Pharmaceuticals, Inc., priority 2014, dated 2019):

Legend:
[1] = test system: LU-01-0030 xenograft; test: LU-01-0030 xenograft model, first study, Compound 1 and radiation; format: in vivo, mice
Source text: (§1) The LU-01-0030 xenograft model is a human primary non-small cell lung cancer model. In the first study with the LU-01-0030 model, approximately nine week old female BALB/c nude (Shanghai Sino-British SIPPR/BK Laboratory Animal Co., LTD.) mice were implanted subcutaneously with approximate 30 mm^3 LU-01-0030 tumor slices in the right flank. When the mean tumor volume reached approximately 159 mm^3, the animals were randomized into 10 treatment groups (n=8/group).
Compound 1 [((1R,2R,3S,4R)-2,3-dihydroxy-4-(2-(3-(trifluoromethylthio) ? phenyl)pyrazolo[1,5-a]pyrimidin-7-ylamino)cyclopentyl)methyl sulfamate] is formulated in 10% HPbCD in sterile water and administered intravenously on a BIW (twice/week schedule; Monday and Thursday, i.e. days 0, 3, 7, 10, 14, 17) for 3 weeks in the HN-13-0014 and LU-01-0030 (first study) models. Compound 1 formulation was prepared weekly and stored at room temperature in the dark.
(§2) Beam-focused radiation was delivered using a either 1 or 2 Gray dosed on days 0, 1, 7, and 8 or on days 0, 3, 7, and 10 in the HN-13-0014 and LU-01-0030 (first study) models. A Rad Source RS-2000 X-ray irradiator was used for therapy (Rad Source). Before radiation, animals were anesthetized by i.p. injection using 1.0% sodium pentobarbital at 80 mg/kg (Vendor: Sigma). Focused radiation was applied to each mouse at 1 Gy/min.
(§3) Tumors were measured twice weekly using vernier calipers. Tumor volumes were calculated using the following formula: (0.5×[length×width^2]). Treatment groups and dosing/treatment schedules are indicated in Tables 1a, 2a, 3a, 4a, and 5a below. Tumor size and body weight are measured approximately twice a week for the duration of the study. Mice are euthanized when their tumor volume reached approximately 1000 mm^3. Tumor growth continued to be monitored after the dosing period in some studies. In Tables 1a, 2a, 3a, 4a, and 5a tumor volumes are shown for HN-13-0014 (day 21), LU-01-0030 (day 21), the second LU-01-0030 study (day 20), LU-01-0266 (day 20), ST-02-0004 (day 21) and FIN-13-0007 (day 24), respectively. Average tumor volume is reported as a function of time for selected groups of selected studies.
(§4) Measurements from day 0 to day 20, day 21 or day 24 are analyzed as specified in Tables below. All tumor volumes have a value of 1 added to them before log10 transformation. For each animal, the log tumor volume at day 0 is subtracted from the log tumor volume on the subsequent days. This difference vs. time is used to calculate an area under the curve (AUC) for each animal using the trapezoid rule. In instances when an animal in a treatment group is removed early from the study, the last observed tumor value is carried forward through all subsequent time points. The synergy score for the combination of agents A and B is defined as 100*(mean(AUCAB)−mean(AUCA)−mean(AUCB)+mean(AUCctl))/mean(AUCctl): where AUCAB, AUCA, AUCB, and AUCctl are the AUC values for animals in the combination group, the A group, the B group, and the control group, respectively. The standard error of the synergy score is computed based on the variation in the AUC values among the animals. […] If the P-value is above 0.05, then the combination is considered to be additive. If the P-value is below 0.05, and the synergy score is less than zero, then the combination is considered to be synergistic. If the P-value is below 0.05 and the synergy score was greater than zero, but the mean AUC for the combination was lower than the lowest mean AUC among the two single agent treatments, then the combination was sub-additive. If the P-value is below 0.05 and if the synergy score was greater than zero, and the mean AUC for the combination was greater than the mean AUC for at least one of the single agent treatments, then the combination was antagonistic.

[2] = test system: HN-13-0007 xenograft; test: HN-13-0007 xenograft model, Compound 1 and radiation; format: in vivo, mice; details: for Classification / Synergy score: through Day 24
Source text: as §1, with “HN-13-0007” for “LU-01-0030”, “head and neck” for “non-small cell”, “Approximately” for “In the first study with the LU-01-0030 model, approximately”, “130” for “159”
Compound 1 [((1R,2R,3S,4R)-2,3-dihydroxy-4-(2-(3-(trifluoromethylthio) ? phenyl)pyrazolo[1,5-a]pyrimidin-7-ylamino)cyclopentyl)methyl sulfamate] is formulated in 10% HPbCD in sterile water and administered intravenously on days 0, 3, 7, 10, 14, 17 in the LU-01-0266 and HN-13-0007 models and on days 0, 3, 8, 11, 15, 18 in the ST-02-0004 model and in the second study with the LU-01-0030 model. Compound 1 formulation was prepared weekly and stored at room temperature in the dark.
as §2, with “using” for “using a either 1 or”, “LU-01-0266” for “HN-13-0014”, “HN-13-0007” for “LU-01-0030 (first study)”, “models. In the ST-02-0004 model 2 Gray of radiation was delivered on days 0, 1, 3, and 8.” for “models.”
as §3, §4

[3] = 6.25 mg/kg Compound 1 + 2 Gy Radiation D0, 1, 7, 8
[4] = 6.25 mg/kg Compound 1 + 2 Gy Radiation D0, 3, 7, 10
[5] = 6.25 mg/kg Compound 1 IV BIWx3 + 2 Gy Radiation Beam D 0, 1, 7, 8
[6] = 6.25 mg/kg Compound 1 IV BIWx3 + 2 Gy Radiation Beam D 0, 3, 7, 10
[7] = 15 mg/kg Compound 1 + 2 Gy Radiation D0, 1, 7, 8
[8] = 15 mg/kg Compound 1 + 2 Gy Radiation D0, 3, 7, 10
[9] = 15 mg/kg Compound 1 IV BIWx3 + 2 Gy Radiation Beam D 0, 1, 7, 8
[10] = 15 mg/kg Compound 1 IV BIWx3 + 2 Gy Radiation Beam D 0, 3, 7, 10
[11] = Compound 1 at 15 mg/kg as single agent

Question: How did the Classification [1, 3] turn out when `NS(=O)(=O)OC[C@H]1C[C@@H](Nc2ccnc3cc(-c4cccc(SC(F)(F)F)c4)nn23)[C@H](O)[C@@H]1O` [Compound 1, ((1R,2R,3S,4R)-2,3-dihydroxy-4-(2-(3-(trifluoromethylthio)phenyl)pyrazolo[1,5-a]pyrimidin-7-ylamino)cyclopentyl)methyl sulfamate] was run?
Answer: Its Classification is “Additive (If the P-value is above 0.05, then the combination is considered to be additive)”.

Question: What about the Synergy score [1, 3] of the same molecule?
Answer: Its Synergy score is 5.4.

Question: And the Classification [1, 4]?
Answer: Its Classification is “Additive (If the P-value is above 0.05, then the combination is considered to be additive)”.

Question: What about the Synergy score [1, 4] of the same molecule?
Answer: The Synergy score was −22.2.

Question: And the “Tumor Volume Day 21” value [1, 5]?
Answer: The value was 101.9 mm^3.

Question: What about the “Tumor Volume Day 21” value [1, 6] of the same molecule?
Answer: Its value is 106.3 mm^3.

Question: And the “Tumor Volume Day 21” value ([1]; 6.25 mg/kg Compound 1 IV BIWx3, single agent)?
Answer: Its value is 555.7 mm^3.

Question: What about the “anti-tumor activity compared to the vehicle control” value ([1]; 6.25 mg/kg Compound 1 as a single agent) of the same molecule?
Answer: The value was “no anti-tumor activity”.

Question: And the Classification [1, 7]?
Answer: The Classification was “Synergy (If the P-value is below 0.05, and the synergy score is less than zero, then the combination is considered to be synergistic)”.

Question: What about the Synergy score [1, 7] of the same molecule?
Answer: The Synergy score was −139.6.

Question: And the Classification [1, 8]?
Answer: Its Classification is “Synergy (If the P-value is below 0.05, and the synergy score is less than zero, then the combination is considered to be synergistic)”.

Question: And the Synergy score [1, 8]?
Answer: Its Synergy score is −165.9.

Question: And the “Tumor Volume Day 21” value [1, 9]?
Answer: Its value is 2.3 mm^3.

Question: And the “Tumor Volume Day 21” value [1, 10]?
Answer: Its value is 2.8 mm^3.

Question: And the “Tumor Volume Day 21” value ([1]; 15 mg/kg Compound 1 IV BIWx3, single agent)?
Answer: Its value is 151.3 mm^3.

Question: What about the “anti-tumor activity, single agent” value [1, 11] of the same molecule?
Answer: The value was “tumor stasis”.

Question: What about the combination effect ([1]; Compound 1 with 2 Gy radiation) of the same molecule?
Answer: Its combination effect is “additive-to-synergistic combination effect”.

Question: And the “Tumor Volume Day 24” value [2, 5]?
Answer: Its value is 318.8 mm^3.

Question: What about the “Tumor Volume Day 24” value [2, 6] of the same molecule?
Answer: The value was 340 mm^3.

Question: What about the “Tumor Volume Day 24” value ([2]; 6.25 mg/kg Compound 1 IV BIWx3 = D 0, 3, 7, 10, 14, 17, single agent) of the same molecule?
Answer: The value was 442.4 mm^3.

Question: And the “Tumor Volume Day 24” value [2, 9]?
Answer: Its value is 358.3 mm^3.

Question: What about the “Tumor Volume Day 24” value [2, 10] of the same molecule?
Answer: Its value is 299.7 mm^3.

Question: And the “Tumor Volume Day 24” value ([2]; 15 mg/kg Compound 1 IV BIWx3 = D 0, 3, 7, 10, 14, 17, single agent)?
Answer: Its value is 362.1 mm^3.

Question: What about the “tumor growth inhibition, single agent” value [2, 11] of the same molecule?
Answer: The value was “minimal tumor growth inhibition”.

Question: And the combination effect ([2]; Compound 1 with 2 Gy radiation)?
Answer: The combination effect was “additive combination effect”.

Question: What about the “anti-tumor activity compared to the vehicle control” value ([2]; single agent, IV at 6.25 mg/kg for 3 weeks on Days 0, 3, 7, 10, 14, 17) of the same molecule?
Answer: The value was “no anti-tumor activity”.

Question: What about the Classification [2, 3] of the same molecule?
Answer: Its Classification is “Additive (If the P-value is above 0.05, then the combination is considered to be additive)”.

Question: What about the Synergy score [2, 3] of the same molecule?
Answer: Its Synergy score is −20.

Question: What about the Classification [2, 4] of the same molecule?
Answer: Its Classification is “Additive (If the P-value is above 0.05, then the combination is considered to be additive)”.

Question: And the Synergy score [2, 4]?
Answer: The Synergy score was −24.

Question: And the Classification [2, 7]?
Answer: Its Classification is “Additive (If the P-value is above 0.05, then the combination is considered to be additive)”.

Question: What about the Synergy score [2, 7] of the same molecule?
Answer: The Synergy score was 24.

Question: What about the Classification [2, 8] of the same molecule?
Answer: Its Classification is “Additive (If the P-value is above 0.05, then the combination is considered to be additive)”.

Question: And the Synergy score [2, 8]?
Answer: The Synergy score was −13.
